From patent publication US20230019236A1, “PROTEIN TYROSINE PHOSPHATASE INHIBITORS AND METHODS OF USE THEREOF” (Calico Life Sciences LLC, priority 2019, published 2023)

Experiments:
[1] = molecular target: T1, His tagged PTPN2 (TC45) protein (Homo sapiens, UniProt P17706); assay: Mobility Shift Assay used to determine potency of PTPN2 inhibitors; assay type: biochemical; conditions: Table 2; read-out: PTPN2 MSA IC50
T1 construct: made in house
T1 sequence (P17706 with tags, fused parts or gaps isoform P17706-2): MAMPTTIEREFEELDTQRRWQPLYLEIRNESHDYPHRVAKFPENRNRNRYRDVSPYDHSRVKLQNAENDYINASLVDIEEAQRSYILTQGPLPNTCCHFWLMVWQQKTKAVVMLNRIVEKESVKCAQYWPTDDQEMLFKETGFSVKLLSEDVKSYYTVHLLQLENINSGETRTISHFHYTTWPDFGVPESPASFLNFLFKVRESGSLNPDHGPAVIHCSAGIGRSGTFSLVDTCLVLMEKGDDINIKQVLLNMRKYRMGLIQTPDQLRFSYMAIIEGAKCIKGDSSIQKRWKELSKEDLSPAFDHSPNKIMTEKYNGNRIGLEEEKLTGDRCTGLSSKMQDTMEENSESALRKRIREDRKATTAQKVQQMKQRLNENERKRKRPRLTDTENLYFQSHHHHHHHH
Procedure: Example 292: Mobility Shift Assay used to determine potency of PTPN2 inhibitors
Compound activity was determined using in house His tagged PTPN2 (TC45) protein (SEQ ID NO: 1) in an in vitro enzymatic reaction. The enzymatic assay used to determine activity was a mobility shift assay using a LabChip EZ Reader by Caliper Life Sciences. The enzymatic reaction was carried out in assay buffer (50 mM HEPES pH 7.5, 1 mM EGTA, 10 mM EDTA, 0.01% Tween® 20, and 2 mM DTT). The compounds were dispensed on a white 384 well ProxiPlate™ (PerkinElmer Catalog#6008289) plate using the Labcyte Echo at varying concentrations (12 point, 1:3 dilution). The enzyme (at 0.5 nM) was incubated with compound for 10 minutes at room temperature. Then the substrate (phosphorylated insulin receptor probe sequence: ((OG488)—{NH—CH2—CH2—O—CH2—CH2—O—CH2—CO)—T—R—D—I—(PY)—E—T—D—Y—Y—R—K—K—NH2) (SEQ ID NO: 2) was added at 2 μM to the plates and incubated for another 10 minutes at room temperature. Finally, a quench solution (water and 4-bromo-3-(2-oxo-2-propoxyethoxy)-5-(3-{[1-(phenylmethanesulfonyl)piperidin-4-yl]amino}phenyl)thiophene-2-carboxylic acid) was added to the plates, which were then run on the EZ Reader (excitation 488 nm, emission 530 nm) to measure % conversion (the amount of phosphorylated substrate which was de-phosphorylated by PTPN2). […] The % inhibition was then used to calculate the IC50 values.

[2] = molecular target: T2, His tagged full-length PTP1B protein (Homo sapiens, UniProt P18031); assay: Mobility Shift Assay (MSA) used to determine potency of PTP1B inhibitors; assay type: biochemical; conditions: Table 2
T2 construct: made in house
T2 sequence (P18031 with tags, fused parts or gaps): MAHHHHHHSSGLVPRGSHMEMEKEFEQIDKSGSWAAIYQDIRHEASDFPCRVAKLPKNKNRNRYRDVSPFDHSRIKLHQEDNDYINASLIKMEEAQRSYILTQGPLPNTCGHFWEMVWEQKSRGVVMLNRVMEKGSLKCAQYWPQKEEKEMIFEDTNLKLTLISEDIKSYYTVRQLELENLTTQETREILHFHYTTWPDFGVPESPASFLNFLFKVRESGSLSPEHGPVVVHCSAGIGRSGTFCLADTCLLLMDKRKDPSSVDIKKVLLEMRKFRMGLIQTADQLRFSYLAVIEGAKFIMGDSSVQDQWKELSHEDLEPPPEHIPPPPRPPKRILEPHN
Procedure: The enzymatic assay used to determine activity is a mobility shift assay using a LabChip EZ Reader by Caliper Life Sciences. The enzymatic reaction was carried out in assay buffer (50 mM HEPES pH 7.5, 1 mM EGTA, 10 mM EDTA, 0.01% Tween® 20, and 2 mM DTT). […] The enzyme (at 0.5 nM) was incubated with compound for 10 minutes at room temperature. […] The % inhibition was then used to calculate the IC50 values.

SMILES	IC50 [1]	IC50 [2]
CCC(O)COc1ccc2cc(O)c(N3CC(=O)NS3(=O)=O)c(F)c2c1 (stereo not drawn) [Compound 327, 5-[1-fluoro-3-hydroxy-7-(2-hydroxybutoxy)naphthalen-2-yl]-1λ^6,2,5-thiadiazolidine-1,1,3-trione]	< 1 nM	< 1 nM
Nc1ccc2c(F)c(N3CC(=O)NS3(=O)=O)c(O)cc2c1 [Compound 329, 5-(6-amino-1-fluoro-3-hydroxynaphthalen-2-yl)-1λ^6,2,5-thiadiazolidine-1,1,3-trione]	1 to 10 nM	10 to 100 nM
O=C1CN(c2c(O)cc3cc(O)ccc3c2F)S(=O)(=O)N1 [Compound 328, 5-(1-fluoro-3,6-dihydroxynaphthalen-2-yl)-1λ^6,2,5-thiadiazolidine-1,1,3-trione]	< 1 nM	1 to 10 nM
CC(C)(C#N)CCOc1cc2c(F)c(N3CC(=O)NS3(=O)=O)c(O)cc2cc1O [Compound 366, 4-{[8-fluoro-3,6-dihydroxy-7-(1,1,4-trioxo-1λ^6,2,5-thiadiazolidin-2-yl)naphthalen-2-yl]oxy}-2,2-dimethylbutanenitrile]	< 1 nM	< 1 nM
O=C1CN(c2c(O)cc3cc(O)c(OCCC4CC4)cc3c2F)S(=O)(=O)N1 [Compound 356, 5-[7-(2-cyclopropylethoxy)-1-fluoro-3,6-dihydroxynaphthalen-2-yl]-1λ^6,2,5-thiadiazolidine-1,1,3-trione]	< 1 nM	< 1 nM
CC(C)(CCN)CCOc1ccc2cc(O)c(N3CC(=O)NS3(=O)=O)c(F)c2c1 [Compound 348, 5-{7-[(5-amino-3,3-dimethylpentyl)oxy]-1-fluoro-3-hydroxynaphthalen-2-yl}-1λ^6,2,5-thiadiazolidine-1,1,3-trione]	< 1 nM	< 1 nM
O=C1CN(c2c(O)cc3cc(OCCCC(F)F)ccc3c2F)S(=O)(=O)N1 [Compound 340, 5-[6-(4,4-difluorobutoxy)-1-fluoro-3-hydroxynaphthalen-2-yl]-1λ^6,2,5-thiadiazolidine-1,1,3-trione]	10 to 100 nM	10 to 100 nM
CC(C)CCOc1ccc2c(F)c(N3CC(=O)NS3(=O)=O)c(O)cc2c1 [Compound 339, 5-[1-fluoro-3-hydroxy-6-(3-methylbutoxy)naphthalen-2-yl]-1λ^6,2,5-thiadiazolidine-1,1,3-trione]	10 to 100 nM	10 to 100 nM
CC(C)(CO)CS(=O)(=O)N1CC=C(c2ccc3cc(O)c(N4CC(=O)NS4(=O)=O)c(F)c3c2)C1 [Compound 344, 5-{1-fluoro-3-hydroxy-7-[1-(3-hydroxy-2,2-dimethylpropane-1-sulfonyl)-2,5-dihydro-1H-pyrrol-3-yl]naphthalen-2-yl}-1λ^6,2,5-thiadiazolidine-1,1,3-trione]	< 1 nM	< 1 nM
COc1cc2c(F)c(N3CC(=O)NS3(=O)=O)c(O)cc2cc1O [Compound 357, 5-(1-fluoro-3,6-dihydroxy-7-methoxynaphthalen-2-yl)-1λ^6,2,5-thiadiazolidine-1,1,3-trione]	1 to 10 nM	1 to 10 nM
N#CC1(COc2ccc3cc(O)c(N4CC(=O)NS4(=O)=O)c(F)c3c2)CC1 [Compound 199, 1-({[8-fluoro-6-hydroxy-7-(1,1,4-trioxo-1λ^6,2,5-thiadiazolidin-2-yl)naphthalen-2-yl]oxy}methyl)cyclopropane-1-carbonitrile]	1 to 10 nM	> 100 nM
CC(C)(O)CCOc1ccc2c(F)c(N3CC(=O)NS3(=O)=O)c(O)cc2c1 [Compound 334, 5-[1-fluoro-3-hydroxy-6-(3-hydroxy-3-methylbutoxy)naphthalen-2-yl]-1λ^6,2,5-thiadiazolidine-1,1,3-trione]	10 to 100 nM	> 100 nM
O=C1CN(c2c(O)cc3ccc(OCCC4CCCC4)cc3c2F)S(=O)(=O)N1 [Compound 351, 5-[7-(2-cyclopentylethoxy)-1-fluoro-3-hydroxynaphthalen-2-yl]-1λ^6,2,5-thiadiazolidine-1,1,3-trione]	< 1 nM	< 1 nM
O=C1CN(c2c(O)cc3ccc(OCCC4CCOC4)cc3c2F)S(=O)(=O)N1 (stereo not drawn) [Compound 350, 5-{1-fluoro-3-hydroxy-7-[2-(oxolan-3-yl)ethoxy]naphthalen-2-yl}-1λ^6,2,5-thiadiazolidine-1,1,3-trione]	< 1 nM	< 1 nM
O=C1CN(c2c(O)cc3cc(O)c(OCCC4CCCC4)cc3c2F)S(=O)(=O)N1 [Compound 364, 5-[7-(2-cyclopentylethoxy)-1-fluoro-3,6-dihydroxynaphthalen-2-yl]-1λ^6,2,5-thiadiazolidine-1,1,3-trione]	< 1 nM	< 1 nM
C[C@@](O)(CO)CCOc1ccc2cc(O)c(N3CC(=O)NS3(=O)=O)c(F)c2c1 [Compound 341, 5-{7-[(3S)-3,4-dihydroxy-3-methylbutoxy]-1-fluoro-3-hydroxynaphthalen-2-yl}-1λ^6,2,5-thiadiazolidine-1,1,3-trione]	< 1 nM	< 1 nM
COCCCOc1cc2c(F)c(N3CC(=O)NS3(=O)=O)c(O)cc2cc1O [Compound 368, 5-[1-fluoro-3,6-dihydroxy-7-(3-methoxypropoxy)naphthalen-2-yl]-1λ^6,2,5-thiadiazolidine-1,1,3-trione]	< 1 nM	< 1 nM
O=C1CN(c2c(O)cc3ccc(OCCN4CCNC4=O)cc3c2F)S(=O)(=O)N1 [Compound 326, 5-{1-fluoro-3-hydroxy-7-[2-(2-oxoimidazolidin-1-yl)ethoxy]naphthalen-2-yl}-1λ^6,2,5-thiadiazolidine-1,1,3-trione]	< 1 nM	10 to 100 nM
CC(C)(O)CCNc1ccc2c(F)c(N3CC(=O)NS3(=O)=O)c(O)cc2c1 [Compound 333, 5-{1-fluoro-3-hydroxy-6-[(3-hydroxy-3-methylbutyl)amino]naphthalen-2-yl}-1λ^6,2,5-thiadiazolidine-1,1,3-trione]	10 to 100 nM	10 to 100 nM
O=C1CN(c2c(O)cc3ccc(OCCOC(F)(F)F)cc3c2F)S(=O)(=O)N1 [Compound 354, 5-{1-fluoro-3-hydroxy-7-[2-(trifluoromethoxy)ethoxy]naphthalen-2-yl}-1λ^6,2,5-thiadiazolidine-1,1,3-trione]	1 to 10 nM	1 to 10 nM
O=C1CN(c2c(O)cc3cc(O)c(OCCC4CCOC4)cc3c2F)S(=O)(=O)N1 (stereo not drawn) [Compound 367, 5-{1-fluoro-3,6-dihydroxy-7-[2-(oxolan-3-yl)ethoxy]naphthalen-2-yl}-1λ^6,2,5-thiadiazolidine-1,1,3-trione]	< 1 nM	< 1 nM
C[C@@H](O)C[C@@H](O)COc1ccc2cc(O)c(N3CC(=O)NS3(=O)=O)c(F)c2c1 (racemic) [Compound 325, 5-(7-{[rac-(2R,4R)-2,4-dihydroxypentyl]oxy}-1-fluoro-3-hydroxynaphthalen-2-yl)-1λ^6,2,5-thiadiazolidine-1,1,3-trione]	1 to 10 nM	1 to 10 nM
CC(C)(C)OC(=O)NCCOc1ccc2c(F)c(N3CC(=O)NS3(=O)=O)c(O)cc2c1 [Compound 336, tert-butyl (2-{[5-fluoro-7-hydroxy-6-(1,1,4-trioxo-1λ^6,2,5-thiadiazolidin-2-yl)naphthalen-2-yl]oxy}ethyl)carbamate]	10 to 100 nM	10 to 100 nM
O=C1CN(c2c(O)cc3ccc(C4=CCN(S(=O)(=O)CCCO)C4)cc3c2F)S(=O)(=O)N1 [Compound 369, 5-{1-fluoro-3-hydroxy-7-[1-(3-hydroxypropane-1-sulfonyl)-2,5-dihydro-1H-pyrrol-3-yl]naphthalen-2-yl}-1λ^6,2,5-thiadiazolidine-1,1,3-trione]	< 1 nM	< 1 nM
